Assay results from patent US20050137251A1, “Dexanabinol and dexanabinol analogs regulate inflammation related genes” (priority 2002, published 2005).

How the values were obtained:
TNF-α secretion = TNF-α secretion in LPS activated macrophages; assay type: cell-based; conditions: Mus musculus, Macrophage, read-out: IC50 for inhibition of TNF-α secretion
Source text: (§1) The technique used to quantify the amount of a given protein in a liquid sample, either tissue culture supernatant or body fluid, is based on Enzyme Linked ImmunoSorbent Assay (ELISA) methodology. Either commercially available or established in house, the assay is based on the capture of the protein of interest by specific antibodies bound to the bottom of an ELISA plate well. Unbound material is washed away, the captured protein is then exposed to a secondary antibody generally labeled with horseradish peroxidase (HRP) or alkaline phosphatase (ALP). Again the unbound material is washed away, the samples are then incubated with the appropriate substrate yielding a colorimetric reaction. The reaction is stopped and reading is carried out in a spectrophotometer at the appropriate wavelength. Samples are tested at least in duplicate and the appropriate standard curve, consisting of serial dilutions of the recombinant target protein, is incorporated on each plate. Concentration of the protein in the sample is calculated from the standard curve.
RAW 264.7 macrophages, a mouse cell line (ATCC # TIB 71), were grown in Dulbecco's modified Eagle's medium (DMEM) with 4 mM L-glutamine adjusted to contain 1.5 g/L sodium bicarbonate, 4.5 g/L glucose, and 10% heat inactivated fetal bovine serum. […]

IL-2 gene expression = IL-2 gene expression in MCAo mice brains; conditions: 5 mg/kg i.v., 18 hrs following MCAo
[1] = tested on: MPTP model of neurodegeneration; experiment: MPTP long-term model: rotarod functional outcome and mortality; assay type: in vivo, mice
Procedure: The mice (C57/BL male mice, average weight 30 g, Harlan, Israel) were administered i.p. with MPTP (Sigma, USA) (40 mg/kg, 5 ml/kg) in saline (Teva Medical, Israel) at 2 weeks interval for four times. The test compounds and controls were injected i.p. once just before the first MPTP administration at a volume dose of 5 ml/kg. Dexanabinol was tested at 20 mg/kg and PRS-211,220 was tested at 5 mg/kg. Each treatment group was composed of at least fourteen animals.
Seven days following each MPTP injection, the animals were submitted to a functional test using the rotarod apparatus as described by Rozas et al. (Rozas G. et al., J. of Neuroscience Methods 83: 165-75, 1998). The performance of the animals in the rotarod system, which measures overall locomotor ability, reflects their ability to achieve functions generally affected in PD. The animals were trained for 4 days before beginning the experiment. Their task was to stay on the accelerating rod without falling for 12 minutes (3 minutes at each speed). The tested speeds were: 15, 19, 23 and 27 rpm. Animal performance on the rod was scored as follows: each animal could obtain a maximum of 3 points (1 for each minute) for full walking on the rod at each speed. […]
Another parameter that was measured in this experiment is mortality, which was relatively high in this model.

IL-2 secretion = IL-2 secretion (ELISA) in activated Jurkat T cells; assay type: cell-based; conditions: Homo sapiens, supernatant 24 hours after activation, read-out: IC50 for inhibition of IL-2 secretion
Source text: as §1, with “Samples are tested at least in duplicate and the appropriate standard curve, consisting of serial dilutions of the recombinant target protein, is incorporated on each plate.” left out, “curve. […]” for “curve.”
In parallel, the supernatant from each well was collected 24 hours after the activation and analyzed for the presence of secreted IL-2 by ELISA. […] The absorbance measured at 450 nm is proportional to the concentration of IL-2 in the sample or standard. A standard curve is obtained by plotting the concentrations of recombinant IL-2 standards versus their absorbances. The IL-2 concentrations in experimental samples are then determined using the standard curve.

COX-2 gene expression = COX-2 gene expression in LPS i.c.v. injected mice brains; assay type: in vivo; conditions: 20 mg/kg i.p., whole brain 6 hours after 100 ng LPS i.c.v.

For `CCCCCCC(C)(C)c1cc(O)c2c(c1)OC(C)(C)[C@H]1CC=C(CO)C[C@H]21` [dexanabinol, 1,1-dimethylheptyl-(3S,4S)-7-hydroxy-Δ^6-tetrahydrocannabinol], the IC50 (TNF-α secretion) was 10 to 20 µM, the “Reduction of IL-2 gene activation vs vehicle” value (IL-2 gene expression) was 177% and the “Rotarod functional outcome vs vehicle” value ([1]; 20 mg/kg i.p., fourth session) was “positive trend”. For the same molecule, the Mortality ([1]; 20 mg/kg, MPTP only 69%) was 11%, the IC50 (IL-2 secretion) was 8 µM and the “Reduction in the level of COX-2 activation” value (COX-2 gene expression) was 53%.
